Measurements published in publication PMC11062922 (Nature Chemical Biology, 2023).
Blank lines part the entries; values can stand above or below the compound they belong to.

What was measured:
GSK3A = target: T1, GSK3A (Homo sapiens, UniProt P49840); assay: Kinobeads full dose-response competition binding: GSK3A; details: Gene Name GSK3A; for Relative Intensity 0.3nM: 0.3nM compound; for Relative Intensity 0.3nM / Relative Intensity 1nM / Relative Intensity 3nM / Relative Intensity 10nM / Relative Intensity 30nM / Relative Intensity 100nM / Relative Intensity 300nM / Relative Intensity 1000nM: DMSO = 1; for Relative Intensity 1nM: 1nM compound; for Relative Intensity 3nM: 3nM compound; for Relative Intensity 10nM: 10nM compound; for Relative Intensity 30nM: 30nM compound; for Relative Intensity 100nM: 100nM compound; for Relative Intensity 300nM: 300nM compound; for Relative Intensity 1000nM: 1000nM compound; for Kd: EC50 with Correction, read-out: apparent Kd; for Kd / EC50: doses in nM; for EC50: eight-dose curve fit
T1 construct: endogenous in cells

LATS1 = target: T2, LATS1 (Homo sapiens, UniProt O95835); assay: Kinobeads full dose-response competition binding: LATS1; details: Gene Name LATS1; for Relative Intensity 0.3nM: 0.3nM compound; for Relative Intensity 0.3nM / Relative Intensity 1nM / Relative Intensity 3nM / Relative Intensity 10nM / Relative Intensity 30nM / Relative Intensity 100nM / Relative Intensity 300nM / Relative Intensity 1000nM: DMSO = 1; for Relative Intensity 1nM: 1nM compound; for Relative Intensity 3nM: 3nM compound; for Relative Intensity 10nM: 10nM compound; for Relative Intensity 30nM: 30nM compound; for Relative Intensity 100nM: 100nM compound; for Relative Intensity 300nM: 300nM compound; for Relative Intensity 1000nM: 1000nM compound; for Kd: EC50 with Correction, read-out: apparent Kd; for Kd / EC50: doses in nM; for EC50: eight-dose curve fit
T2 construct: endogenous in cells
T2 sequence (O95835 1-1130): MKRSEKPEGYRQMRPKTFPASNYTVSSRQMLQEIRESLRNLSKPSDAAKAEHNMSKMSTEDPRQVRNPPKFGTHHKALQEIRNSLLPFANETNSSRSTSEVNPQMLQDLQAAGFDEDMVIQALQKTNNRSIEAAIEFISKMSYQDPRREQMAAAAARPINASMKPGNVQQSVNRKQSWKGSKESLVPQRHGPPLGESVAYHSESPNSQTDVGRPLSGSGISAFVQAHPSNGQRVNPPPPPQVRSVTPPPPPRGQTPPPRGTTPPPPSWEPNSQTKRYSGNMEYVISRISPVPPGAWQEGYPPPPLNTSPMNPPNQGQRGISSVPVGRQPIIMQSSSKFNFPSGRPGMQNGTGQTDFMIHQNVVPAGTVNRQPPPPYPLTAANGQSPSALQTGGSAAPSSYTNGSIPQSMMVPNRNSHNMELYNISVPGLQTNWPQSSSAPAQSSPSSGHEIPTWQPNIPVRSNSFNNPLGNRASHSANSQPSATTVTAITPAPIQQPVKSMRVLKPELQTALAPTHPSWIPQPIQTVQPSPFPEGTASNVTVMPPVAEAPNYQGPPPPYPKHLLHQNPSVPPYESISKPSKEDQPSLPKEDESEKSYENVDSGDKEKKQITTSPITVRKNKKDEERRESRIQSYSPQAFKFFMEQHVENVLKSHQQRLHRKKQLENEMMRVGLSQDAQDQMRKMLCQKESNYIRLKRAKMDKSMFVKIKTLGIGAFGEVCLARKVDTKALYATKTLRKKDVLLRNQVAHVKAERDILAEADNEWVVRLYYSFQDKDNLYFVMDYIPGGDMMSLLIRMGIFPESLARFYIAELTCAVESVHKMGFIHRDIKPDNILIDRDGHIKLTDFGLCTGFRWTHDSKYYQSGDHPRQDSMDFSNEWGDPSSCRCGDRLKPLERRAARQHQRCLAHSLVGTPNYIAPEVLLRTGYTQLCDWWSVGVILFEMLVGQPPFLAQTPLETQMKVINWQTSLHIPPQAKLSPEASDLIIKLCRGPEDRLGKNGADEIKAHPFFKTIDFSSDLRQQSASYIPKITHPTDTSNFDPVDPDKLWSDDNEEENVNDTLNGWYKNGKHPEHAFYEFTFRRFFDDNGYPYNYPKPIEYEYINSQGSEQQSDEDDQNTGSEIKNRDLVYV

PKN1 = target: T3, PKN1 (Homo sapiens, UniProt Q16512); assay: Kinobeads full dose-response competition binding: PKN1; details: Gene Name PKN1; for Relative Intensity 0.3nM: 0.3nM compound; for Relative Intensity 0.3nM / Relative Intensity 1nM / Relative Intensity 3nM / Relative Intensity 10nM / Relative Intensity 30nM / Relative Intensity 100nM / Relative Intensity 300nM / Relative Intensity 1000nM: DMSO = 1; for Relative Intensity 1nM: 1nM compound; for Relative Intensity 3nM: 3nM compound; for Relative Intensity 10nM: 10nM compound; for Relative Intensity 30nM: 30nM compound; for Relative Intensity 100nM: 100nM compound; for Relative Intensity 300nM: 300nM compound; for Relative Intensity 1000nM: 1000nM compound
T3 construct: a mixture of lysates from five cancer cell lines; endogenous in cells

PRKACA = target: T4, PRKACA (Homo sapiens, UniProt P17612); assay: Kinobeads full dose-response competition binding: PRKACA; details: Gene Name PRKACA
T4 construct: a mixture of lysates from five cancer cell lines; endogenous in cells

[1] = target: T5, endogenous kinases and other proteins enriched by Kinobeads from mixed lysates of K-562, COLO-205, MV-4-11, SK-N-BE(2) and OVCAR-8 (Homo sapiens, UniProt P06239); assay: Kinobeads competition binding profiling, two doses (100 nM and 1 µM);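 note: inhibitor preincubated 45 min at 4 °C in cell lysate, then bead pulldown. Bound protein quantified by label-free mass spectrometry relative to DMSO vehicle control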
T5 construct: endogenous in cells

[2] = target: T6, endogenous kinases and other proteins enriched by Kinobeads from mixed lysates of K-562, COLO-205, MV-4-11, SK-N-BE(2) and OVCAR-8 (Homo sapiens, UniProt P12931); assay: as above
T6 construct: to maximize the representation of endogenous proteins; endogenous in cells

[3] = target: T7, endogenous kinases and other proteins enriched by Kinobeads from mixed lysates of K-562, COLO-205, MV-4-11, SK-N-BE(2) and OVCAR-8 (Homo sapiens, UniProt P23458); assay: as above
T7 construct: to maximize the representation of endogenous proteins; endogenous in cells

SYK = target: T8, SYK (Homo sapiens, UniProt P43405); assay: Kinobeads two-dose competition binding: SYK
T8 construct: endogenous in cells

EPHA2 = target: T9, EPHA2 (Homo sapiens, UniProt P29317); assay: Kinobeads two-dose competition binding: EPHA2; details: read-out: Lestaurtinib Drugmatrix value, Gene Name EPHA2
T9 construct: endogenous in cells

EPHA4 = target: T10, EPHA4 (Homo sapiens, UniProt P54764); assay: Kinobeads two-dose competition binding: EPHA4; details: read-out: Lestaurtinib Drugmatrix value, Gene Name EPHA4
T10 construct: endogenous in cells

[4] = target: T11, endogenous kinases and other proteins enriched by Kinobeads from mixed cancer cell lysates (Homo sapiens, UniProt P37173); assay: Kinobeads pulldown, full dose-response (eight doses); assay type: binding; details: target TGFBR2; read-out: apparent Kd;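 note: competition with Kinobeads ε after inhibitor preincubation in lysate (5 mg/ml protein) for 45 min at 4 °C, DMSO control, doses 0.3–1,000 nM, label-free LC–MS/MS quantification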
T11 construct: endogenous in cells

[5] = target: T12, endogenous kinases and other proteins enriched by Kinobeads from mixed cancer cell lysates (Homo sapiens, UniProt Q15831); assay: as above; assay type: binding; details: target STK11
T12 construct: endogenous in cells

[6] = target: T13, endogenous kinases and other proteins enriched by Kinobeads from mixed cancer cell lysates (Homo sapiens, UniProt Q9NQS7); assay: as above; assay type: binding; details: target INCENP
T13 construct: endogenous in cells

[7] = EC50 with Correction, doses in nM, read-out: apparent Kd
[8] = eight-dose curve fit, doses in nM

T3 sequence (Q16512 whole entry): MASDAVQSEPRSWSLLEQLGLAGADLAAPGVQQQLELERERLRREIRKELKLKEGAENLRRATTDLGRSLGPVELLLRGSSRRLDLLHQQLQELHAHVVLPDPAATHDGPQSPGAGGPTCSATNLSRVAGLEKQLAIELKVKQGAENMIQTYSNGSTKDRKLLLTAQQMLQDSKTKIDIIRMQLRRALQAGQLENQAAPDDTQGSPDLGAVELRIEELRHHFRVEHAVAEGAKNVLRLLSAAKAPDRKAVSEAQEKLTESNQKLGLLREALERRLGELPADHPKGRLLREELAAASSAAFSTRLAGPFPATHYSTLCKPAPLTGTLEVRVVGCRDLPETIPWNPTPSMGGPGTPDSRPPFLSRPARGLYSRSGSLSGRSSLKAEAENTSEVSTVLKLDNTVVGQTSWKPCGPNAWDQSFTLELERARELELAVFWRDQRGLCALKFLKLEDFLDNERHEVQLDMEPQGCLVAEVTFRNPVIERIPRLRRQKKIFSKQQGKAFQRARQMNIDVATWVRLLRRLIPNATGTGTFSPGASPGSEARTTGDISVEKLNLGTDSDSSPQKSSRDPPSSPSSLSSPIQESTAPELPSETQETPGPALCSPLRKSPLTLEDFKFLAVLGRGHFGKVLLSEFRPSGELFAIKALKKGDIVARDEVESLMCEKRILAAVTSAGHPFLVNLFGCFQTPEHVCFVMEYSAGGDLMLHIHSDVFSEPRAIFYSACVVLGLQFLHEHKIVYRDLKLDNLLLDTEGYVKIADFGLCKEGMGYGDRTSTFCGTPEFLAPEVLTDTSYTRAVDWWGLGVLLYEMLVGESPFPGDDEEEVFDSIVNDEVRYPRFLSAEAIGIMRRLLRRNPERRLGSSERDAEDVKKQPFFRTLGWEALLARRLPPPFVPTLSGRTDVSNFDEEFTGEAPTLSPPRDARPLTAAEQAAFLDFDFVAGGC
T1 sequence (P49840 whole entry): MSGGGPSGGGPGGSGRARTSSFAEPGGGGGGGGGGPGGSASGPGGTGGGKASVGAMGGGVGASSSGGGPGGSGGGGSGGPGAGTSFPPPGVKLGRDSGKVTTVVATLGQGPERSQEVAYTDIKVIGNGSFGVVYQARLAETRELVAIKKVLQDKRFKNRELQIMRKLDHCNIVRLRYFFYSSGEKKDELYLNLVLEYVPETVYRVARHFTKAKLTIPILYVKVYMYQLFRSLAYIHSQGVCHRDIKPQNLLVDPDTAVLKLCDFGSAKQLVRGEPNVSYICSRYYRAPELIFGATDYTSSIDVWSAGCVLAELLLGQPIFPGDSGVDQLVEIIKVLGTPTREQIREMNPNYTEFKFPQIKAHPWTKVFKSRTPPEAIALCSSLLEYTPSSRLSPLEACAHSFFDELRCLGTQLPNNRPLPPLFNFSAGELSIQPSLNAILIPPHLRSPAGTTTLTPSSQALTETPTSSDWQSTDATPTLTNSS
T5 sequence (P06239 whole entry): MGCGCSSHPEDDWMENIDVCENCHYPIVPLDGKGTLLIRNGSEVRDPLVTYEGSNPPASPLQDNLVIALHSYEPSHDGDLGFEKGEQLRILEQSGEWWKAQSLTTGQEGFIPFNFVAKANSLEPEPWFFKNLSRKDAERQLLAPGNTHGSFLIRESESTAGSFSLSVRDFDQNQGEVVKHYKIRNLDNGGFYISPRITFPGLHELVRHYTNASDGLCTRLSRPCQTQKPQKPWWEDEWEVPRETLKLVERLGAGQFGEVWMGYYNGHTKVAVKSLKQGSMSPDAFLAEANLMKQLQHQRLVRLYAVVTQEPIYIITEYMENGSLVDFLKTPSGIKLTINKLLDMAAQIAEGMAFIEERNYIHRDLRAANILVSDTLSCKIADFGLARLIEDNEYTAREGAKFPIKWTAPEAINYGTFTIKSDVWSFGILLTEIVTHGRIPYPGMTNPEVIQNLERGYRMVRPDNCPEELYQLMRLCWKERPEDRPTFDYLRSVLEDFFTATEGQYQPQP
T6 sequence (P12931 whole entry): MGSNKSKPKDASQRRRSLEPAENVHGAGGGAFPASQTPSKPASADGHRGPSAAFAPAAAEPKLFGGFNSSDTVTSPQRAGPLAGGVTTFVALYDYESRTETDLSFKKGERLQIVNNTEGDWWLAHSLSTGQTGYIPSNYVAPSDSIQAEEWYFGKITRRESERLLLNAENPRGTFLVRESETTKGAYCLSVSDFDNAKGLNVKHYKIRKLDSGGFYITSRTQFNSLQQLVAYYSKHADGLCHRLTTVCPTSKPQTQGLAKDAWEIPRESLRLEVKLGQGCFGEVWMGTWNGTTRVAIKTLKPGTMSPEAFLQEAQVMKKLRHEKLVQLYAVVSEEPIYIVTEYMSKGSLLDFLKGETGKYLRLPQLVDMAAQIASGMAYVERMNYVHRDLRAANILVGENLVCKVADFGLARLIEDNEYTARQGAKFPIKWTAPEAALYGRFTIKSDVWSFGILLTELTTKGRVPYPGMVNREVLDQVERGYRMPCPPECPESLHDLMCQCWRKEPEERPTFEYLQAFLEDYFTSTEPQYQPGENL
T7 sequence (P23458 whole entry): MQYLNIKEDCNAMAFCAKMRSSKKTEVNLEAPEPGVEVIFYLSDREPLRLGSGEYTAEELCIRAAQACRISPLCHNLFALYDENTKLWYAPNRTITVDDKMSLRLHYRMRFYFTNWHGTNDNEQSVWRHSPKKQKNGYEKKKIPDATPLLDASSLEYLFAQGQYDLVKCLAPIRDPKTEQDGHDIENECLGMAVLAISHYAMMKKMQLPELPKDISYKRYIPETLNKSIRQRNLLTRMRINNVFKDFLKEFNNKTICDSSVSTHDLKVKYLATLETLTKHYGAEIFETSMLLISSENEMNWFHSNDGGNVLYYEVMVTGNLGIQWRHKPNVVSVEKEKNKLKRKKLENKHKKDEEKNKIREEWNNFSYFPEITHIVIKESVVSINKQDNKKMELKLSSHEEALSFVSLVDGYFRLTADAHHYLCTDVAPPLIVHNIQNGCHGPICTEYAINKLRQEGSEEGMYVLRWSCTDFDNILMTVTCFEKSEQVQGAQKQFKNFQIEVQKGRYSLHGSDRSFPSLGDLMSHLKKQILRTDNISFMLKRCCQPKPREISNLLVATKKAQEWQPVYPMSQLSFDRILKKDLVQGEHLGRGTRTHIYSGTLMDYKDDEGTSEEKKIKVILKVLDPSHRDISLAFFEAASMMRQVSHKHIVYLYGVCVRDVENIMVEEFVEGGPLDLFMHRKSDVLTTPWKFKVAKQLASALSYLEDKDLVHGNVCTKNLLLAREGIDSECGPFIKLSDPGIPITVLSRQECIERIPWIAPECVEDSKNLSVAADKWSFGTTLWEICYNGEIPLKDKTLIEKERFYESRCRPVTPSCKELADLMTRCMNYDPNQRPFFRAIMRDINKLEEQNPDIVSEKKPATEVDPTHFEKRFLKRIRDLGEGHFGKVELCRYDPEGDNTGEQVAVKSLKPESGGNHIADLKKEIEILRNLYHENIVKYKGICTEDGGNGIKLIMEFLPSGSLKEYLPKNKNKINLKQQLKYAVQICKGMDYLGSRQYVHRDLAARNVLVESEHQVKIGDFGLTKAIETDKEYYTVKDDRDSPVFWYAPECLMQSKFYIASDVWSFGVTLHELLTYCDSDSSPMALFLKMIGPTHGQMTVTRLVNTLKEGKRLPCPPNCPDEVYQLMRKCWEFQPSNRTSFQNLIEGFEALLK
T13 sequence (Q9NQS7 whole entry): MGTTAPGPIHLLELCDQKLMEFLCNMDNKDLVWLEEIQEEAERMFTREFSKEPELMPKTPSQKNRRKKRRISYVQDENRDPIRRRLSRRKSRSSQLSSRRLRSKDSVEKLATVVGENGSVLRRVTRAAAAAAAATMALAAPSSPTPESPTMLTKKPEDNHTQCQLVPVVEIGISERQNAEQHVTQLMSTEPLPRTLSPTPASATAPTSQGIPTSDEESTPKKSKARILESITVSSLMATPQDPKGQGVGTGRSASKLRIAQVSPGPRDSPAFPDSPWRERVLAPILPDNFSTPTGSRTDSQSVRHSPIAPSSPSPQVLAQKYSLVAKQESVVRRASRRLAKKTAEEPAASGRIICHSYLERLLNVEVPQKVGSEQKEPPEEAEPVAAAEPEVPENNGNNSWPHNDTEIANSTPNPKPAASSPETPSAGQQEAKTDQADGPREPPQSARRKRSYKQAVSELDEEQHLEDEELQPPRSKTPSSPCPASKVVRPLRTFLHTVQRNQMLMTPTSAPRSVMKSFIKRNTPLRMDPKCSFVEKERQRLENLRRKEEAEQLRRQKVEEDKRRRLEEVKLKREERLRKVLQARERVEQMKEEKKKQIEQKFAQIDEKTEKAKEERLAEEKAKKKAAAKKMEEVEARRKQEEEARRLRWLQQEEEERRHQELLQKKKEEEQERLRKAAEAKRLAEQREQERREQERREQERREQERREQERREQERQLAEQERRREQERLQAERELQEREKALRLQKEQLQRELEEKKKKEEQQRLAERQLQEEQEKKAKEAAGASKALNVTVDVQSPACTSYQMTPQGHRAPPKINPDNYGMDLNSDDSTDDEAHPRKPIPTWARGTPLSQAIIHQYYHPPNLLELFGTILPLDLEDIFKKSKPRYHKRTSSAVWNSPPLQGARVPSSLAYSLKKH
T12 sequence (Q15831 whole entry): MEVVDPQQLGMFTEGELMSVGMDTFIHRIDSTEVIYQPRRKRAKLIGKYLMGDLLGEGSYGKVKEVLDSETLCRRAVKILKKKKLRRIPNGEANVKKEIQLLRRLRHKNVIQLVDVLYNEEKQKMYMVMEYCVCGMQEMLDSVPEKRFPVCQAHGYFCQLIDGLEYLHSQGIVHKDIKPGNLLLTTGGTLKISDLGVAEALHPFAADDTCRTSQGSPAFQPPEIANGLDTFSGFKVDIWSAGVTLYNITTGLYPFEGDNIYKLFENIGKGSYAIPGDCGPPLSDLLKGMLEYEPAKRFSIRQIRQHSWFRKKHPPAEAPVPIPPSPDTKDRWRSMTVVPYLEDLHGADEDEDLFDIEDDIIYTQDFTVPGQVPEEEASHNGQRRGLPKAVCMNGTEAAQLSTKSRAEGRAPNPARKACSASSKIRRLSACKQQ

Relative Intensity 0.3nM (GSK3A): 0.9894
Relative Intensity 1nM (GSK3A): 1.046
Relative Intensity 3nM (GSK3A): 1.057
Relative Intensity 10nM (GSK3A): 0.9554
Relative Intensity 30nM (GSK3A): 0.7994
Relative Intensity 100nM (GSK3A): 0.6557
Relative Intensity 300nM (GSK3A): 0.3972
Relative Intensity 1000nM (GSK3A): 0.1852
Kd (GSK3A): 164 nM
EC50 (GSK3A): 173 nM
Relative Intensity 0.3nM (LATS1): 0.9708
Relative Intensity 1nM (LATS1): 1.022
Relative Intensity 3nM (LATS1): 1.017
Relative Intensity 10nM (LATS1): 1.027
Relative Intensity 30nM (LATS1): 0.7859
Relative Intensity 100nM (LATS1): 0.4584
Relative Intensity 300nM (LATS1): 0.1984
Relative Intensity 1000nM (LATS1): 0.02738
Kd (LATS1): 87.4 nM
EC50 (LATS1): 87.4 nM
Relative Intensity 0.3nM (PKN1): 0.9859
Relative Intensity 1nM (PKN1): 1.011
Relative Intensity 3nM (PKN1): 0.9965
Relative Intensity 10nM (PKN1): 0.9627
Relative Intensity 30nM (PKN1): 0.7754
Relative Intensity 100nM (PKN1): 0.5397
Relative Intensity 300nM (PKN1): 0.2684
Relative Intensity 1000nM (PKN1): 0.1427
Kd (PKN1; [7]): 92.3 nM
EC50 (PKN1; [8]): 92.3 nM
Relative Intensity 0.3nM (PRKACA; 0.3nM compound, DMSO = 1): 1.008
Relative Intensity 1nM (PRKACA; 1nM compound, DMSO = 1): 0.9404
Relative Intensity 3nM (PRKACA; 3nM compound, DMSO = 1): 0.9819
Relative Intensity 10nM (PRKACA; 10nM compound, DMSO = 1): 0.932
Relative Intensity 30nM (PRKACA; 30nM compound, DMSO = 1): 0.8034
Relative Intensity 100nM (PRKACA; 100nM compound, DMSO = 1): 0.7942
Relative Intensity 300nM (PRKACA; 300nM compound, DMSO = 1): 0.6618
Relative Intensity 1000nM (PRKACA; 1000nM compound, DMSO = 1): 0.5702
Kd (PRKACA; [7]): 212 nM
EC50 (PRKACA; [8]): 230 nM
SMILES: CCn1c(-c2nonc2N)nc2c(C#CC(C)(C)O)nc(OCCN)cc21 [GSK902056A]

SMILES: CCn1c(-c2nonc2N)nc2c(C#CC(C)(C)O)nc(OCCNC)cc21 [GSK949675A]
Relative Intensity 0.3nM (GSK3A): 1.008
Relative Intensity 1nM (GSK3A): 1.091
Relative Intensity 3nM (GSK3A): 1.095
Relative Intensity 10nM (GSK3A): 0.9753
Relative Intensity 30nM (GSK3A): 1.009
Relative Intensity 100nM (GSK3A): 0.7508
Relative Intensity 300nM (GSK3A): 0.4472
Relative Intensity 1000nM (GSK3A): 0.237
Kd (GSK3A): 104 nM
EC50 (GSK3A): 167 nM
Relative Intensity 0.3nM (LATS1): 1.0287
Relative Intensity 1nM (LATS1): 1.07
Relative Intensity 3nM (LATS1): 1.096
Relative Intensity 10nM (LATS1): 1.105
Relative Intensity 30nM (LATS1): 1.087
Relative Intensity 100nM (LATS1): 0.897
Relative Intensity 300nM (LATS1): 0.6219
Relative Intensity 1000nM (LATS1): 0.3635
Kd (LATS1): 238 nM
EC50 (LATS1): 238 nM
Relative Intensity 0.3nM (PKN1): 1.026
Relative Intensity 1nM (PKN1): 1.04
Relative Intensity 3nM (PKN1): 1.011
Relative Intensity 10nM (PKN1): 0.946
Relative Intensity 30nM (PKN1): 0.9307
Relative Intensity 100nM (PKN1): 0.9366
Relative Intensity 300nM (PKN1): 0.7358
Relative Intensity 1000nM (PKN1): 0.4262

SMILES: COc1cc(Nc2ncc3c(C)nc(-c4cc5ccccc5[nH]4)n3n2)cc(OC)c1OC [GW869516X]
Kinobeads Data ([1]; LCK): no target
Kinobeads Data ([2]; SRC): no target
Kinobeads Data ([3]; JAK1(JH2domain-pseudokinase)): no target
Kinobeads Data (SYK; SYK): no target

SMILES: C[C@]12O[C@H](C[C@]1(O)CO)n1c3ccccc3c3c4c(c5c6ccccc6n2c5c31)CNC4=O [Lestaurtinib]
potency estimated from few doses ([1]; read-out: Lestaurtinib Drugmatrix value (apparent Kd), Gene Name LCK, target LCK, each column = one Lestaurtinib control run_replicate): 550 nM
potency estimated from few doses ([2]; read-out: Lestaurtinib Drugmatrix value, Gene Name SRC): 618 nM
potency estimated from few doses ([3]; read-out: Lestaurtinib Drugmatrix value (apparent Kd), Gene Name JAK1, target JAK1, each column = one Lestaurtinib control run_replicate): 881 nM
potency estimated from few doses (SYK; read-out: Lestaurtinib Drugmatrix value, Gene Name SYK): 157 nM
potency estimated from few doses (EPHA2): 428 nM
potency estimated from few doses (EPHA4): 268 nM

Kd [4]: 2960 nM
EC50 [5]: 1150 nM
Kd ([5]; read-out: apparent Kd): 1150 nM
EC50 [6]: 150 nM
Kd ([6]; read-out: apparent Kd): 150 nM
SMILES: Cn1cc(-c2nc(N[C@@H]3CCCC[C@@H]3N)c(F)c3c2C(=O)NC3)cn1 [TAK659]
